Key:
p53 = p53 level by western blot in hBMSCs; format: cell-based, human; conditions: 0.1 µM to 10 µM
Description: Human Bone Marrow‐derived Mesenchymal Stem Cells (hBMSCs) were provided by Professor Lee's laboratory, and cells from passages four to nine were used for all experiments. hBMSCs were cultured in alpha‐minimum essential medium (Welgene, LM008‐01) supplemented with 10% Fetal Bovine Serum (FBS) (Gibco, US origin, 16000–044) and 1% penicillin/streptomycin (Gibco, 15140‐122).
(§1) After discarding the medium and washing the cells twice with cold dPBS, the cells were collected using a scraper and lysed using RIPA buffer (GenDEPOT, R4200‐010) containing protease and phosphatase inhibitors (GenDEPOT, P3200‐001). The collected samples were centrifuged at 13 200 rpm for 10 min at 4 °C, and the supernatant containing total protein was collected. SDS‐PAGE gels (10–12%) were prepared, and protein samples were mixed with 5X loading buffer containing reducing agent (Biosesang, S2002) and heated at 98 °C for 5 min. Equal amounts of protein samples were loaded onto a gel, separated by electrophoresis, and transferred onto nitrocellulose membranes using a Dry Transfer Stacks Kit (Invitrogen, IB23001). The membrane was blocked with 5% nonfat milk in 1X TBST for 1 h at room temperature to prevent nonspecific binding. The membranes were incubated with primary antibodies specific to the target proteins overnight at 4 °C with gentle shaking. […]

EGFP‐MDM2 = assay: EGFP-MDM2 fluorescence / live imaging degradation assay; format: cell-based
Description: HeLa cells were cultured in DMEM (Welgene, LM001‐05) supplemented with 10% FBS (Welgene, S001‐07). For transient transfection, the cells were seeded at ≈70% confluence. The following day, transfection was performed using Lipofectamine 3000 (Invitrogen, L3000015) for 24 h according to the manufacturer's protocol. The cells were transfected with 100 ng of EGFP‐MDM2 per well in the 96‐well plate and were transfected with 2 µg of MDM2 WT and 2 µg of HA‐ubiquitin, total 4 µg per well in the 6‐well plate.
To construct the EGFP‐MDM2 plasmid DNA, MDM2 WT was amplified by PCR using specific primers. The PCR products were digested with BamH1 and EcoR1 to generate compatible ends. The plasmid backbone, EGFP‐C1, previously digested with the same enzyme, was ligated into the digested PCR product using T4 ligase (Biolabs, M0202S). The resulting plasmid construct was confirmed using restriction enzyme digestion and DNA sequencing. MDM2 WT (#16233) and HA‐ubiquitin (#18712) were purchased from Addgene (used primer sequences, see Table S2, Supporting Information).
Real‐time Live cell imaging (phase contrast, EGFP fluorescence) was performed to monitor EGFP‐MDM2 intensity at 7 min intervals after compound treatment using Cytation5 (Agilent) laser autofocus conditions to capture EGFP fluorescence to assess intensity. For fluorescence imaging, the cells were fixed using 4% PFA and washed three times with 1X dPBS. Fluorescence imaging was performed using the Cytation5. The intensity of fluorescence was assessed by tracking the fluorescence of individual cells in each image using the Time‐lapse analyzer or ROI measure feature of the Fiji ImageJ software (Version 1.54 h, USA).

IKZF1 = molecular target: T1, IKZF1 (Homo sapiens, UniProt Q13422); assay: Neo-substrate off-target immunoblot in hBMSCs; format: cell-based; conditions: 10 µM, conditions with MDM2 degradation ≈70%
T1 construct: endogenous in cells; host or cells: hBMSCs
T1 sequence (Q13422 whole entry): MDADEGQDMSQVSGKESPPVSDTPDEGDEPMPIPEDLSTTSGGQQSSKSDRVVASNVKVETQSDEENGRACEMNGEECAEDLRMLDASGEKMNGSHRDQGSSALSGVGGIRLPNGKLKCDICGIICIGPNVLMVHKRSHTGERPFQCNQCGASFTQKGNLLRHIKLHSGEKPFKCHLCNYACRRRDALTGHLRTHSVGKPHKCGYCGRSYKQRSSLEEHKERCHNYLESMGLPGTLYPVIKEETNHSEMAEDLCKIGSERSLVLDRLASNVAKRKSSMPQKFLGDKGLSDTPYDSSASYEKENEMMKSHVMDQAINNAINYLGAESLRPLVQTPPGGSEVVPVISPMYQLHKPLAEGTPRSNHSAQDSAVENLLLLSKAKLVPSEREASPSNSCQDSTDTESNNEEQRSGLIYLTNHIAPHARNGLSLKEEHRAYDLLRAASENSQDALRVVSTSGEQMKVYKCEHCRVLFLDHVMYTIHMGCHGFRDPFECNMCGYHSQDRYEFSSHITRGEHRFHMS
Description: as §1, with “shaking. The next day, the membrane was washed three times with TBST at 10 min intervals to remove unbound primary antibodies. The membranes were incubated with secondary antibodies (anti‐rabbit and anti‐mouse) conjugated to horseradish peroxidase (HRP) for 1 h at room temperature. The membrane was washed three times with 1X TBST at 10 min intervals to remove unbound secondary antibodies.” for “shaking.”

With `COc1ccc(C2=N[C@H](c3ccc(Cl)cc3)[C@H](c3ccc(Cl)cc3)N2C(=O)N2CCN(CC(=O)NCCCCCCCCOc3cccc4c3C(=O)N(C3CCC(=O)NC3=O)C4=O)C(=O)C2)c(OC(C)C)c1` (stereo in doubt) [CL144] the p53 levels (p53) was “elevated p53 levels in a dose‐dependent manner”, the “EGFP‐MDM2 maximal degradation efficacy” value (EGFP‐MDM2; 1 µM) was 84% and the “Dmax (EGFP signal intensity)” value (EGFP‐MDM2; EGFP‐MDM2 expressing cells, 1 nM to 50 µM, n = 3) was 1 μΜ. The DC50 (EGFP‐MDM2; EGFP‐MDM2 expressing cells, 1 nM to 50 µM, n = 3, read-out: DC50 (EGFP signal intensity)) was 250 nM, the “concentration at which maximum degradation efficiency was achieved” value (EGFP‐MDM2; live imaging, 0.01 to 10 µM) was 10 µM and the “nuclear EGFP signal” value (EGFP‐MDM2; live imaging, treatment for 4 h) was “almost completely turned off the nuclear EGFP signal”. The IKZF1 reduction (IKZF1) was “about 35%”.

— PMC12097015, “Development of MDM2‐Targeting PROTAC for Advancing Bone Regeneration” (Advanced Science, 2025)
